Source: patent US20250129334A1, “LINEAGE SPECIFICATION DURING STEM CELL TRANSITION” (Amniotics AB, priority 2021, published 2025)

Assays:
HE cells [1] = assay: Colony forming unit assay of subcultured HE cells; type: cell-based, human
Procedure: Subcultured HE cells were treated with StemPro Accutase Cell Dissociation Reagent for 2 minutes at 37° C. and dissociated cells were resuspended in 3 ml Methocult H4230 (STEMCELL Technologies, France) (prepared according to manufacturer's instructions, with 20 mL Iscove's Modified Dulbecco's Medium containing 2.5 μg hSCF, 5 μg GM-CSF, 2.5 μg IL-3 and 500 U EPO). Each mixture was divided onto 2 wells of a non-tissue culture treated 6-well plate. Following a 12-day incubation in a humidified incubator at 37° C., 5% CO2, 20% O2, colonies were morphologically distinguished and scored. For globin analysis, colonies in Methocult wells were harvested with PBS, washed thoroughly and frozen in RLT buffer with β-mercaptoethanol. Following RNA extraction and RT (Qiagen), gene expression was assessed with taqman probes by q-PCR. The taqman probes used for this assay are HBA1/2 (Hs00361191_g1), HBE1 (Hs00362216_m1), HBG2/1 (Hs00361131_g1) and KLF1 (Hs00610592_m1).

HE cells [2] = assay: Single-cell RNAseq of treated HE cells at day 2 of subculture; type: cell-based, human
Procedure: Sorted HE, EHT and HSC-like cells as well magnetically selected (Miltenyi Biotec) cord blood CD34^+ cells were plated onto Matrigel (16 μg/cm^2, Corning)-coated 96-well flat bottom plates in HE medium (Ditadi, A. & Sturgeon, C. M. Directed differentiation of definitive hemogenic endothelium and hematopoietic progenitors from human pluripotent stem cells. Methods 101, 65-72 (2016)) with 1% penicillin-streptomycin and kept in a humidified incubator at 37° C., 5% CO2, 4% O2 overnight. The following day (day 0), wells were washed twice with PBS and fresh HE medium was added, together with UK5099 (10 μM) or DCA (3 mM), where indicated. On day 1 and 2 (as indicated), cells were washed twice with PBS 0.04% UltraPure BSA and collected after a 2-minute incubation at 37° C. with StemPro Accutase Cell Dissociation Reagent. Cells were spun down, resuspended in PBS 0.04% UltraPure BSA, counted (yield between 8,000-18,000 cells) and library preparation was conducted according to the Chromium Single Cell 3′ Reagent kit v3 instructions (10× Genomics). Sequencing was performed on a NOVASeq 6000 from Illumina with the run parameters (28-8-0-91) recommended by 10× Genomics with a final loading concentration of 300 pM of the pooled libraries. Human Umbilical Cord Blood samples were collected from Skine University Hospital (Lund and Malmo) and Helsingborg Hospital with informed consents according to guidelines approved by the regional ethical committee.
The data was processed and analyzed using Seurat v3.1.0, where cells were allowed to have up to 20% mitochondrial reads prior to log-normalization and finding the top 500 variable genes using the “vst” method. Cell cycle scores were calculated and the data was scaled regressing on mitochondrial content and the difference of the S and G2M score. Principal components were calculated prior to calculating a UMAP. Pseudotime trajectories describing two developmental routes were identified in our EHT dataset using Slingshot (Street, K. et al. Slingshot: cell lineage and pseudotime inference for single-cell transcriptomics. BMC Genomics 19,477 (2018)) along which the cells were ordered. The cells were then binned along each trajectory where the cell type composition of each bin was calculated as percentages. Cord blood CD34+ cells were mapped to our data and labeled using scCoGAPS (Stein-O'Brien, G. L. et al. Decomposing Cell Identity for Transfer Learning across 23 Cellular Measurements, Platforms, Tissues, and Species. Cell Syst 8, 395-411.e8 (2019)). CS13 data from Zeng et al. (Zeng, Y. et al. Tracing the first hematopoietic stem cell generation in human embryo by single-cell RNA sequencing. Cell Res 1-14 (2019)) was read and processed to make a UMAP from which the cells they name as “AEC” and “Hem” were identified. These 99 cells were mapped to our data and labeled using SCMAP59. Carnegie Stage 13 data from Zeng et al. was mapped to our EHT dataset using scCoGAPS where 10 patterns were identified, named according to their respective weights (as shown in Table 1) and then projected using projectR. […] The CS 13 dorsal aorta dataset from Zeng et al. was mapped onto our EHT dataset using scCoGAPS. The patterns resulting from this analysis were classified as the cell types described by Zeng et al.
Each cell was assigned to the group that achieved the highest weight. […]

Structure (SMILES) | ratio of CFU-E colonies to the sum of CFU-G, CFU-GM and CFU-M colonies, lower than control (HE cells [1]; 6 days subculture, DCA 3 mM) | less treated HE cells in cluster 7 compared to the control (HE cells [2]; day 2, DCA 3 mM) [%] | granulocyte and macrophage colonies (CFU-G, GM and M) (HE cells [1]; 3 or 6 days of UK5099) | ratio of CFU-E colonies to the sum of CFU-G, CFU-GM and CFU-M colonies, higher than control (HE cells [1]; 6 days subculture, UK5099 10 μM) [fold] | erythroid colony (CFU-E) formation (HE cells [1]; UK5099 3 or 6 days, DCA 6-day treatment, vs untreated) | LSD1, GFI1 and GFI1B expression (HE cells [2]; as compared to DCA-treated cells) | average expression levels of erythroid lineage genes (RYK, KLF3, TAL1, GATA2, ZFPM1, KLF1, NFE2, ANK1, HBQ1) (HE cells [2]; clusters 6 and 7) | percentage of cells in cluster 6 (HE cells [2]; day 2) | more treated HE cells in cluster 7 compared to the control (HE cells [2]; day 2, UK5099 10 μM) [%]
O=C(O)C(Cl)Cl [DCA, dichloroacetate] | more than 3 fold | 35 | – | – | – | – | – | – | –
N#CC(=Cc1cn(-c2ccccc2)c2ccccc12)C(=O)O [UK5099, 2-Cyano-3-(1-phenyl-1H-indol-3-yl)-2-propenoic acid] | – | – | decreased | 20 | significantly increased | higher levels | higher | constant between conditions | 38
